Legend:
[1] = Metabolite profiles of DCDQ in human plasma and urine by LC/MS (Table 33); assay type: in vivo, healthy human subjects; parameters: key to Matrix (in which DCDQ / metabolite was characterized by LC/MS): P = plasma; U = urine; settings: for Matrix (in which DCDQ / metabolite was characterized by LC/MS): human plasma and urine, healthy subjects receiving DCDQ
Procedure: Drug administration and specimen collection were performed in a randomized, double-blinded, placebo-controlled, ascending single dose study of the safety, tolerability, pharmacokinetics, and pharmacodynamics of DCDQ administered orally to healthy subjects and subjects with schizophrenia and schizoaffective disorder. The specimens were stored at approximately −70° C. until analysis for metabolite profiles and for ratios of carbamoyl glucuronide (M6) to DCDQ.
Two subjects with medium and high exposure to DCDQ in the 25 mg multiple ascending dose study were also analyzed by LC/MS for metabolite profiles. The 8 hr plasma samples collected on day 1 and day 14 from subjects 9 and 41 were processed and analyzed as described below. No internal standard was added to the samples analyzed for metabolite profiles.
LC/MS System 1 was used for analysis of plasma and urine samples for metabolite characterization. The HPLC equipment used with this LC/MS System consisted of an Agilent Model 1100 HPLC system (Agilent Technologies, Palo Alto, Calif.) including an autosampler, binary pump and diode array UV detector. The UV detector was set to monitor 210 to 350 nm. The HPLC mobile phase consisted of 10 mM ammonium acetate, pH 4.5 (A) and methanol (B), and was delivered at 0.2 mL/min. The linear mobile phase gradient (HPLC Gradient 1) is shown below. During LC/MS sample analysis, up to 6 min of the initial flow was diverted away from the mass spectrometer prior to evaluation of metabolites.
The mass spectrometer used for metabolite characterization with LC/MS System 1 was a Finnigan LCQ-Deca ion trap mass spectrometer (Thermo Electron, San Jose, Calif.). This mass spectrometer was equipped with an electrospray ionization (ESI) interface and operated in the positive ionization mode. Settings for the LCQ mass spectrometer are listed below.
LC/MS System 2 was used to provide additional MS/MS data for characterization of DCDQ metabolites in urine. The HPLC equipment used with LC/MS System 2 consisted of a Waters model 2695 HPLC system (Waters Corp., Milford, Mass.). It was equipped with a built-in autosampler and a model 996 diode array UV detector. The UV detector was set to monitor 210-400 nm. The HPLC column, mobile phases, flow rate, diversion of flow away from the mass spectrometer and gradient were as described above for LC/MS System 1. The column temperature was 25° C.
The mass spectrometer used for metabolite characterization with LC/MS System 2 was a Micromass Quattro Micro triple quadrupole mass spectrometer (Waters Corp.). This mass spectrometer was equipped with an electrospray interface and operated in the positive ionization mode. Settings for this mass spectrometer are listed below.

[2] = Metabolites of DCDQ identified in dogs by LC/MS analysis (Table 26); assay type: in vivo, beagle dogs; settings: P = plasma, U = urine, B = brain, F = feces
Text: An Agilent Model 1100 HPLC system (Agilent Technologies, Palo Alto, Calif.) including an autosampler and diode array UV detector was used for LC/MS analysis. The UV detector was set to monitor 200 to 400 nm. For selected LC/MS analysis, radiochromatograms were acquired using a β-Ram model 3 radioactivity flow detector (IN/US Systems Inc., Tampa, Fla.) equipped with a solid scintillant flow cell. LC conditions were the same as the condition B described above.
The mass spectrometer used for metabolite characterization was a Micromass Q-TOF-2 quadrupole time-of-flight hybrid mass spectrometer (Waters). The mass spectrometer was equipped with an electrospray ionization (ESI) interface and operated in the positive ionization mode. Collision energy settings of 5 and 30 eV were used for full MS and MS/MS scans, respectively. Settings for the mass spectrometer are listed below.

[3] = Incubation of [14C]DCDQ with rat liver microsomes; assay type: in vitro ADME, Sprague Dawley rats
Procedure: [^14C]DCDQ was mixed with non-radiolabeled DCDQ (1:3 or 1:5) in the incubations. Microsomal incubations consisted of [^14C]DCDQ, magnesium chloride (10 mM) and liver microsomes incubated in 0.5 mL of 0.1 M potassium phosphate buffer, pH 7.4. [^14C]DCDQ (20 μL) in water was added to the incubation tubes containing buffer, magnesium chloride solution and microsomes. After mixing, the tubes were pre-incubated for 2 minutes in a shaking water bath at 37° C. The reactions were initiated by the addition of UDPGA or the NADPH regenerating system. UDPGA was added to incubations as a 50 μL aliquot of a 20 mM solution in water, to give a final concentration of 2 mM. An NADPH regenerating system (30 μL) was added to incubations to evaluate CYP450-mediated metabolism. The NADPH regenerating system consisted of glucose-6-phosphate (2 mg/mL), glucose-6-phosphate dehydrogenase (0.8 units/mL) and NADP^+ (2 mg/mL). Control incubations were conducted under the same conditions, but without the NADPH generating system, UDPGA or microsomes. All incubations were performed in duplicate. Incubations were stopped by the addition of 0.5 mL ice-cold methanol. Samples were vortex-mixed. Denatured proteins were separated by centrifugation at 4300 rpm and 4° C. for 10 minutes (Model T21 super centrifuge, Sorvall). The protein pellets were extracted with 0.5 mL of methanol. The supernatant was combined for each sample, mixed and evaporated to a volume of about 0.3 mL under a nitrogen stream in a Zymark TurboVap LV evaporator (Caliper Life Science, Hopkinton, Mass.). The concentrated sample was centrifuged and aliquots were radioassayed and analyzed by HPLC. This method recovered an average of 92.1% of the radioactivity from the reaction mixture.
To evaluate species differences in cytochrome P450- and UGT-mediated metabolism, [^14C]DCDQ was incubated for 20 minutes with 0.5 mg/mL liver microsomal proteins from mice, rats, dogs or humans in the presence of the NADPH regenerating system or UDPGA. The assay conditions were the same as described above, and DCDQ concentrations were 12 μM and 56 μM for cytochrome P450- and UGT-mediated metabolism, respectively.
A Waters model 2690 HPLC system (Waters Corp., Milford, Mass.) with a built-in autosampler was used for analysis. Separations were accomplished on a Phenomenex Luna C18(2) column (2×150 mm, 5 μm) (Phenomenex, Torrance, Calif.) coupled with a filter (4×2 mm) cartridge. A variable wavelength UV detector set to monitor 250 nm and Flo-One β Model A525 radioactivity flow detector (Perkin Elmer) with a 250 μL LQTR flow cell were used for data acquisition. The flow rate of Ultima Flow M scintillation fluid was 1 mL/min, providing a mixing ratio of scintillation cocktail to mobile phase of 5:1. […]

[4] = NADPH regenerating system, 12 μM DCDQ, 20 min

Row | SMILES | Matrix (in which DCDQ / metabolite was characterized by LC/MS) [1] | Matrix [2] | metabolite detected in microsomal incubation [3, 4] | relative abundance in human plasma ([1]; all dose groups, single and multiple dose studies) | relative abundance in human urine ([1]; in vivo) | metabolite detected in microsomal incubation ([3]; UDPGA, 56 μM DCDQ)
1 | c1cc2c3c(c1)[C@H]1CCC[C@H]1CN3CCNC2 [DCDQ, (9aR,12aS)-4,5,6,7,9,9a,10,11,12,12a-decahydro-cyclopenta[c][1,4]diazepine[6,7,1-ij]quinoline, reference compound] | P, U | P, U, F | – | – | – | –
2 | [O-][N+]12CCN=Cc3cccc(c31)[C@H]1CCC[C@H]1C2 (stereo partly drawn) [Metabolite M5, DCDQ imine N-oxide] | P | – | not mouse or rat | – | – | –
3 | O=C(O)[C@H]1O[C@@H](OC(=O)N2CCN3C[C@@H]4CCC[C@@H]4c4cccc(c43)C2)[C@H](O)[C@@H](O)[C@@H]1O [Metabolite M6, carbamoyl glucuronide of DCDQ] | P, U | P, U | – | predominant drug-related component | predominant drug-related component | not mouse or rat

Continued, values first:

Row | Matrix (in which DCDQ / metabolite was characterized by LC/MS) [1] | Matrix [2] | metabolite detected in microsomal incubation [3, 4] | relative abundance in human plasma ([1]; all dose groups, single and multiple dose studies) | relative abundance in human urine ([1]; in vivo) | metabolite detected in microsomal incubation ([3]; UDPGA, 56 μM DCDQ) | SMILES
4 | P, U | P, U | not detected | – | – | – | OC1CN2C[C@@H]3CCC[C@@H]3c3cccc(c32)CN1 (stereo partly drawn) [Metabolite M1, hydroxy DCDQ]
5 | – | P, U, F | observed | – | – | – | OC1[C@@H]2CCC[C@@H]2c2cccc3c2N1CCNC3 (stereo partly drawn) [Metabolite M2, hydroxy DCDQ]
6 | – | P, U | – | – | – | – | O=C1CC[C@@H]2c3cccc4c3N(CCNC4)C[C@H]12 [Metabolite M7, 17-keto DCDQ]
